ChEMBL document CHEMBL1136425, “A novel metal-chelating inhibitor of protein farnesyltransferase” (Bioorg Med Chem Lett, 2003)
≈ marks a conversion by molar mass, not a printed value.

Test system: not listed separately
Experiment: Inhibitory activity against K-rasNRK cells
Type: functional, cell-based, Rattus norvegicus

Row | IC50 | SMILES
1 | 0.32 µg/mL (≈ 0.834 µM) | SCCNCc1cc(-c2cccc3ccccc23)cc(CNCCS)n1

Target: Protein farnesyltransferase (Homo sapiens, UniProt P49354+P49356)
Experiment: Inhibition of [3H]farnesyl pyrophosphate binding to human farnesyltransferase
Type: protein-complex assay

Row | IC50 | SMILES
2 | 0.0119 mM | CCCC[C@@H](C)/C=C(C)/C=C(\C)C(=O)NC1=C[C@@](O)(/C=C/C=C/C=C/C(=O)NC2=C(O)CCC2=O)[C@@H]2O[C@@H]2C1=O [MANUMYCIN A]
3 | 0.62 mM | CN(C)c1cc(CNCCS)nc(CNCCS)c1
4 | 100 mM | c1ccc(-c2ccccn2)nc1
5 | 15.5 mM | NCCN [ETHYLENEDIAMINE]
6 | 4 mM | c1cnc2c(c1)ccc1cccnc12 [PHENANTHROLINE]
